Measured values published in ChEMBL document CHEMBL1201862, “PubChem BioAssay data set” (2004).
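Growth conditions: 96-well plates. Treatment: test compound, 48 hours, 5 concentrations. Analysis: linear interpolation between bracketing concentrations; unreached endpoints set to highest concentration. Abbreviation: GI50, concentration required for 50% inhibition of growth.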 Activity calls are given as the source filed them. Rule as the data show it: active = GI50 up to about 1.1 µM and inactive = higher.

Assays:
Test in all cases: NCI-60 cell line screen, 48 h
BT-549 = tested on: BT-549
COLO 205 = tested on: COLO 205
DU-145 = tested on: DU-145
HCT-116 = tested on: HCT-116
HOP-92 = tested on: HOP-92
M14 = tested on: M14
NCI-H522 = tested on: NCI-H522
OVCAR-5 = tested on: OVCAR-5
PC-3 = tested on: PC-3
RPMI-8226 = tested on: RPMI-8226
RXF 393 = tested on: RXF 393
SF-539 = tested on: SF-539
SK-MEL-28 = tested on: SK-MEL-28
SN12C = tested on: SN12C
SR = tested on: SR
TK-10 = tested on: TK-10
U-251 = tested on: U-251
UACC-257 = tested on: UACC-257
CCRF-CEM = tested on: CCRF-CEM

Measured: GI50

COc1cc(O)ccc1C(=S)SC
inactive: BT-549 > 100 µM | COLO 205 > 100 µM | DU-145 > 100 µM | HCT-116 80.9 µM | HOP-92 34.2 µM | M14 > 100 µM | NCI-H522 46 µM | OVCAR-5 > 100 µM | PC-3 47.2 µM | RPMI-8226 21.8 µM | RXF 393 89.3 µM | SF-539 76.2 µM | SK-MEL-28 > 100 µM | SN12C 1.45 µM | SR 43.2 µM | TK-10 60.4 µM | U-251 54.2 µM | UACC-257 51.5 µM

CC(C)(C)OC(=O)NC(Cc1ccccc1)OCc1ccccc1 (stereo not drawn)
inactive: BT-549 23.3 µM | COLO 205 35 µM | DU-145 20.1 µM | HCT-116 17.9 µM | M14 17.9 µM | NCI-H522 11.4 µM | OVCAR-5 24 µM | PC-3 13.5 µM | RPMI-8226 26 µM | RXF 393 20.8 µM | SF-539 21.4 µM | SK-MEL-28 17.9 µM | SN12C 26.1 µM | SR 30.7 µM | TK-10 19 µM | U-251 > 10 µM | UACC-257 > 10 µM

Cc1ccc(S(=O)(=O)N2CCC(=O)c3cc(Br)ccc32)cc1
inactive: BT-549 13.9 µM | COLO 205 16.9 µM | DU-145 8.67 µM | HCT-116 4.72 µM | HOP-92 18.6 µM | M14 5.06 µM | NCI-H522 7.93 µM | OVCAR-5 42.4 µM | PC-3 6.01 µM | RPMI-8226 12.2 µM | RXF 393 12.5 µM | SF-539 5 µM | SK-MEL-28 24.7 µM | SN12C 12.9 µM | SR 3.96 µM | TK-10 10.7 µM | U-251 3.72 µM | UACC-257 6.95 µM

N#Cc1sc2c(c1OC(=O)c1ccco1)c(=O)n(-c1ccccc1)c(=S)n2-c1ccccc1
inactive: BT-549 37.6 µM | CCRF-CEM > 10 µM | COLO 205 22.8 µM | DU-145 48.5 µM | HCT-116 19.2 µM | M14 25.5 µM | NCI-H522 27.4 µM | PC-3 18.5 µM | RPMI-8226 22.4 µM | RXF 393 23.3 µM | SF-539 26.1 µM | SK-MEL-28 35 µM | SN12C 27.8 µM | SR > 10 µM | TK-10 49.8 µM | U-251 25.3 µM | UACC-257 62.2 µM

CCCCCCCC(CC(=O)O)OC(=O)CC(CCCCCCC)OC1OC(C)C(O)C(O)C1OC1OC(C)C(O)C(O)C1O (stereo not drawn)
inactive: BT-549 > 100 µM | CCRF-CEM 79.4 µM | COLO 205 > 100 µM | DU-145 > 100 µM | HCT-116 > 100 µM | HOP-92 > 100 µM | M14 > 100 µM | NCI-H522 > 100 µM | OVCAR-5 > 100 µM | PC-3 > 100 µM | RPMI-8226 > 100 µM | SF-539 39 µM | SK-MEL-28 44.6 µM | SN12C > 100 µM | SR > 100 µM | U-251 > 100 µM | UACC-257 > 100 µM

COc1cc(-c2c[nH]c3ccccc23)nc(-c2c[nH]c3ccccc23)n1
inactive: BT-549 15.9 µM | CCRF-CEM 1.13 µM | COLO 205 8.32 µM | DU-145 11.3 µM | HCT-116 3.43 µM | HOP-92 2.34 µM | M14 4.07 µM | OVCAR-5 8.13 µM | PC-3 2.84 µM | RPMI-8226 2.8 µM | SF-539 7.14 µM | SR 9.53 µM | TK-10 7.98 µM | U-251 4.19 µM | UACC-257 8.91 µM

COc1ccc(N2C(=O)/C(=C/c3ccc(N(CCC#N)CCC#N)cc3)N=C2c2ccccc2)cc1
inactive: BT-549 > 100 µM | COLO 205 > 100 µM | DU-145 > 100 µM | HCT-116 > 100 µM | HOP-92 > 100 µM | M14 > 100 µM | OVCAR-5 > 100 µM | PC-3 > 100 µM | RPMI-8226 > 100 µM | RXF 393 > 100 µM | SF-539 > 100 µM | SK-MEL-28 > 100 µM | SN12C > 100 µM | SR > 100 µM | TK-10 > 100 µM | U-251 > 100 µM | UACC-257 > 100 µM

CN1C(=O)C23CCCC2CC1(c1ccccc1)S3 (stereo not drawn)
inactive: BT-549 95.5 µM | COLO 205 > 100 µM | DU-145 > 100 µM | HCT-116 > 100 µM | HOP-92 41 µM | M14 > 100 µM | NCI-H522 91.2 µM | OVCAR-5 > 100 µM | PC-3 45.2 µM | RPMI-8226 > 100 µM | RXF 393 > 100 µM | SF-539 > 100 µM | SK-MEL-28 > 100 µM | SN12C > 100 µM | SR > 100 µM | TK-10 > 100 µM | U-251 > 100 µM | UACC-257 23 µM

CCCCN1C(=O)CC2[C@@H]3CCc4cc(OC)ccc4C3CC[C@]2(C)C1=O (stereo partly drawn)
inactive: BT-549 > 10 µM | CCRF-CEM > 10 µM | COLO 205 > 10 µM | DU-145 > 10 µM | HCT-116 > 10 µM | M14 > 10 µM | OVCAR-5 > 10 µM | PC-3 > 10 µM | RPMI-8226 > 10 µM | RXF 393 > 10 µM | SF-539 > 10 µM | SK-MEL-28 > 10 µM | SN12C > 10 µM | SR 6.85 µM | TK-10 > 10 µM | U-251 > 10 µM | UACC-257 > 10 µM

NC1C/C(=N\O)c2c(Cl)sc(Cl)c21 (stereo not drawn)
inactive: BT-549 18.5 µM | CCRF-CEM 3.17 µM | COLO 205 25.4 µM | DU-145 15.1 µM | HCT-116 3.96 µM | HOP-92 22.9 µM | M14 16.8 µM | OVCAR-5 21.7 µM | PC-3 20.8 µM | RPMI-8226 10.2 µM | SF-539 8.95 µM | SK-MEL-28 19.3 µM | SN12C 19.1 µM | SR 20.1 µM | TK-10 17.5 µM | UACC-257 17.1 µM

COc1cc2oc(=O)ccc2cc1C(=O)CC(C)C
inactive: BT-549 71.4 µM | CCRF-CEM > 100 µM | COLO 205 > 100 µM | DU-145 > 100 µM | HCT-116 > 100 µM | HOP-92 > 100 µM | M14 > 100 µM | NCI-H522 23.6 µM | OVCAR-5 > 100 µM | PC-3 > 100 µM | RPMI-8226 > 100 µM | SF-539 > 100 µM | SK-MEL-28 > 100 µM | SN12C > 100 µM | SR 62.4 µM | TK-10 > 100 µM | U-251 > 100 µM | UACC-257 > 100 µM
